From patent US9718840B2, “Condensed 5-oxazolidinone derivative” (SUMITOMO DAINIPPON PHARMA CO., LTD., priority 2014, dated 2017)
Where two headings read alike, the source gives them in different places.

Key:
[1] = Ester metabolism stability test: metabolite identification by LC-MS; details: metabolites identified using LC-MS
Excerpt: The metabolites were identified using LC (LC-Nexera X2 manufactured by Shimadzu Corp.)-MS (API4000 manufactured by AB Sciex Pte Ltd.).

[2] = system: human plasma; test: Ester metabolism stability test: stability in human plasma; assay type: in vitro ADME; details: 37° C., 20 minutes
Method: 198 μL of human plasma (manufactured by Cosmo Bio Inc.) was added to 2 μL of a DMSO solution containing a 100 μmol/L test substance, and the mixture was incubated at 37° C. for 20 minutes. After the incubation, the metabolic reaction was terminated by the addition of 600 μL of acetonitrile.

[3] = Ester metabolism stability test: stability in human liver; assay type: in vitro ADME; details: 37° C., 20 minutes, with NADPH
Method: A reaction solution containing 5 μL of human liver S9 (manufactured by Sekisui XenoTech, LLC, 20 mg/mL) mixed with 20 μL of 500 mmol/L Kpi (pH 7.4), 40 μL of a 5 mmol/L aqueous solution of NADPH (manufactured by Oriental Yeast Co., Ltd.), and 133 μL of ion-exchange water was added to 2 μL of a DMSO solution containing a 100 μmol/L test substance, and the mixture was incubated at 37° C. for 20 minutes. After the incubation, the metabolic reaction was terminated by the addition of 600 μL of acetonitrile.

[4] = target: Human FXIa (Homo sapiens, UniProt P03951); test: In vitro activated factor XI (FXIa) inhibition test; assay type: biochemical; parameters: purchased Enzyme Research Laboratories
Sequence of Human FXIa (P03951 388-625 limits assumed): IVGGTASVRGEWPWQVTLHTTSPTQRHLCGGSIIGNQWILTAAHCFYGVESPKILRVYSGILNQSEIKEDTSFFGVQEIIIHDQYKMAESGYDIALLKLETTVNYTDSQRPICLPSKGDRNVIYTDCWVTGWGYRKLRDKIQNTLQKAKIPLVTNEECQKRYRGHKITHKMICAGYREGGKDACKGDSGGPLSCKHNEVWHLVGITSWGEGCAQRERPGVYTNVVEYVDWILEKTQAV
Sequence of Human FXIa (P03951 19-387 partner limits assumed): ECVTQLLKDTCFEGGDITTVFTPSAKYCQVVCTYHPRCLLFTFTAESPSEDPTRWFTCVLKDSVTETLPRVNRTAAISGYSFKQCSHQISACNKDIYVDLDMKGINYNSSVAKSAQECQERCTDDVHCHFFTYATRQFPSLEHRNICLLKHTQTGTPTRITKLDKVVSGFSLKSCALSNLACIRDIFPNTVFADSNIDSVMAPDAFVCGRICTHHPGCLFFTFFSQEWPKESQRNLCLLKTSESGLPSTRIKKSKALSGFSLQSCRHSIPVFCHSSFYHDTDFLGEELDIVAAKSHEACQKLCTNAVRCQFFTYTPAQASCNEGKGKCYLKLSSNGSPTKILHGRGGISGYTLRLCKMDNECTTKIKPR

[5] = system: Rabbit venous thrombus models; test: In vivo antithrombotic effect evaluation test using rabbit (arteriovenous shunt); details: prompt i.v. + continuous i.v.
Method: Rabbit venous thrombus models were prepared by a modification of the report of Wong et al. (Wong P C. et al., J. Pharmacol. Exp. Ther. 292: 351-357 (2000)). Male rabbits (JW, 2 to 4 kg) were anesthetized by the inhalation of isoflurane (ISOFLU®, manufactured by DS Pharma Animal Health Co., Ltd.) (introduced anesthesia: 4%, continuous anesthesia: 1.5 to 2.5%). A tracheostomy tube was inserted to each rabbit, which was then ventilated using a respirator. For the intravenous administration of a test drug and blood collection, catheters were inserted to the right femoral vein and the right femoral artery, respectively. An arteriovenous shunt filled with saline was inserted to the carotid artery and the jugular vein. The arteriovenous shunt was prepared by connecting Atom extension tubes (4Fr) having lengths of 15 cm and 13 cm to the artery side and the vein side, respectively, of a polyethylene tube (length: 60 cm, outside diameter: 11.1 mm, inside diameter: 7.9 mm). Also, 4-0 silk thread having a length of 5 cm was indwelled in the arteriovenous shunt. Blood was sent for 30 minutes from the carotid artery to the jugular vein via the arteriovenous shunt. The shunt was removed, and the weight of the silk thread covered with thrombus was measured. The weight of the silk thread measured before the experiment was subtracted from the measured weight, and the obtained value was used as a wet thrombus weight. One hour before the open of the arteriovenous shunt, the test drug or a vehicle was promptly intravenously administered (0.67 mL/kg) and then continuously intravenously administered (1 mL/kg/hr). The continuous injection was continued throughout the experiment. Further, an existing anticoagulant dabigatran (antithrombin drug) and rivaroxaban (FXa inhibitor) were tested as control drugs.
In order to measure aPTT of blood samples as an index for the intrinsic coagulation pathway, blood was collected before administration and immediately before cessation of blood flow, and plasma was prepared using 3.2% sodium citrate. After incubation at 37° C. for 6 minutes, an STA reagent Cephascreen (for aPTT assay; manufactured by Roche Diagnostics K.K.) was added in an amount equal thereto, and the mixture was further incubated for 4 minutes. STA calcium chloride (manufactured by Roche Diagnostics K.K.) was added in an amount equal thereto, and the time required for coagulation was measured.
In order to measure prothrombin time (PT) of blood samples as an index for the extrinsic coagulation pathway, blood was collected before administration and immediately before cessation of blood flow, and plasma was prepared using 3.2% sodium citrate. After incubation at 37° C. for 10 minutes, Neoplastin Plus (for PT assay; manufactured by Roche Diagnostics K.K.) was added in a double amount, and the time required for coagulation was measured.

[6] = system: Rabbit nail bleeding models; test: Bleeding time evaluation test using rabbit nail bleeding model; assay type: in vivo; details: for Bleeding time: Experiment 1 (maximum 30 minutes), rabbit; for Bleeding time (fold-increase): Experiment 1, ratio to vehicle group average
Method: Rabbit nail bleeding models were prepared by a modification of the report of Wong et al. (Wong P C. et al., J. Thromb. Haemost. 7: 1313-1320 (2009)). Male rabbits (JW, 1.5 to 3.5 kg) were anesthetized by the inhalation of isoflurane (ISOFLU®, manufactured by DS Pharma Animal Health Co., Ltd.) (introduced anesthesia: 4%, continuous anesthesia: 2 to 3%).
For the intravenous administration of a test drug or a vehicle, an indwelling needle was inserted to the auricular vein, and the test drug or the vehicle was promptly intravenously administered (0.67 mL/kg) and then continuously intravenously administered (1 mL/kg/hr). One hour after the start of administration, three posterior toenails were cut and dipped in saline heated to approximately 37° C., and the bleeding time was measured. The bleeding time was defined as a time from the cutting to the arrest of bleeding, and an average value from the three nails was used. The measurement time was 30 minutes at the maximum for experiment 1 and 60 minutes at the maximum for experiment 2. In each experiment, if bleeding for 30 minutes or 60 minutes or longer was confirmed, the bleeding time was regarded as 30 minutes or 60 minutes.

[7] = substrate S-2366, 37° C., 10 minutes, read-out: FXIa Inhibition activity IC50
[8] = dose 0.01 + 0.015 mg/kg + mg/kg/h
[9] = dose 0.03 + 0.045 mg/kg + mg/kg/h
[10] = dose 0.1 + 0.15 mg/kg + mg/kg/h
[11] = dose 0.03 + 0.045 mg/kg + mg/kg/h i.v.
[12] = dose 0.1 + 0.15 mg/kg + mg/kg/h i.v.
[13] = dose 0.3 + 0.45 mg/kg + mg/kg/h i.v.

CC1(C)OC(=O)c2cc3cc(NC(=O)[C@@H]4[C@H](c5ccccc5)CCN4C(=O)[C@H]4CC[C@H]([C@H](N)CF)CC4)ccc3n21.Cl [Example 19, (3S)-1-({trans-4-[(1S)-1-amino-2-fluoroethyl]cyclohexyl}carbonyl)-N-(3,3-dimethyl-1-oxo-1H-[1,3]oxazolo[3,4-a]indol-7-yl)-3-phenyl-L-prolinamide]
Metabolite formed (conversion by metabolism) [1]: Reference Example 19-1
Residual rate (%) Human plasma [2]: 15%
Residual rate (%) Human liver S9 [3]: 93%

CC1(C)OC(=O)c2cc3cc(NC(=O)[C@@H]4[C@H](C5CCCCC5)CCN4C(=O)[C@H]4CC[C@H]([C@H](N)CF)CC4)ccc3n21.Cl [Example 1, (2S,3S)-1-({trans-4-[(1S)-1-Amino-2-fluoroethyl]cyclohexyl}carbonyl)-N-(3,3-dimethyl-1-oxo-1H-[1,3]oxazolo[3,4-a]indol-7-yl)-3-cyclohexylpyrrolidine-2-carboxamide hydrochloride]
Metabolite formed (conversion by metabolism) [1]: converted to the compound of Reference Example 2-6
Residual rate (%) Human plasma [2]: 29%
Residual rate (%) Human liver S9 [3]: 87%

N[C@H](CF)[C@H]1CC[C@H](C(=O)N2CC[C@H](c3ccccc3)[C@H]2C(=O)Nc2ccc3[nH]c(C(=O)O)c(Cl)c3c2)CC1 [compound 45]
IC50 [4, 7]: 60 nM

N[C@H](CF)[C@H]1CC[C@H](C(=O)N2CC[C@@H](N3CCCCC3)[C@H]2C(=O)Nc2ccc3[nH]c(C(=O)O)cc3c2)CC1 [Example 25, 5-[(2S,3R)-1-({trans-4-[(1S)-1-Amino-2-fluoroethyl]cyclohexyl}carbonyl)-3-(piperidin-1-yl)pyrrolidine-2-carboxamide]-1H-indole-2-carboxylic acid 2-trifluoroacetate]
IC50 [4, 7]: 19 nM

N[C@H](CF)[C@H]1CC[C@H](C(=O)N2CC[C@@H](C3CCCCC3)[C@H]2C(=O)Nc2ccc3[nH]c(C(=O)O)c(Cl)c3c2)CC1 [compound 37]
IC50 [4]: 18 nM

CCCCCCOC(=O)NC(=N)c1ccc(NCc2nc3cc(C(=O)N(CCC(=O)OCC)c4ccccn4)ccc3n2C)cc1 [Dabigatran etexilate]
PT (ratio) [5, 8]: 1.07 ± 0.02 ratio
Thrombus weight [5, 8]: 62 ± 18 mg
aPTT (ratio) [5, 8]: 1.28 ± 0.07 ratio
PT (ratio) [5, 9]: 1.23 ± 0.10 ratio
Thrombus weight [5, 9]: 32 ± 9 mg
aPTT (ratio) [5, 9]: 1.58 ± 0.15 ratio
PT (ratio) [5, 10]: 2.29 ± 0.29 ratio
Thrombus weight [5, 10]: 12 ± 4 mg
aPTT (ratio) [5, 10]: 2.34 ± 0.12 ratio
Bleeding time [6, 11]: 1276 ± 353 s
Bleeding time [6, 12]: 1800 ± 0 s
Bleeding time [6, 13]: 1800 ± 0 s
Bleeding time (fold-increase) [6, 11]: 2.7 ± 0.7 fold-increase
Bleeding time (fold-increase) [6, 12]: 3.8 ± 0.0 fold-increase
Bleeding time (fold-increase) [6, 13]: 3.8 ± 0.0 fold-increase

N[C@H](CF)[C@H]1CC[C@H](C(=O)N2CC[C@H](c3ccc(F)cc3)[C@H]2C(=O)Nc2ccc3[nH]c(C(=O)O)cc3c2)CC1 [compound 44]
IC50 [4, 7]: 33 nM

NC(CF)[C@H]1CC[C@H](C(=O)N2CC[C@@H](C3CCCCC3)[C@H]2C(=O)Nc2ccc3[nH]c(C(=O)O)c(F)c3c2)CC1 (some centres unmarked) [Reference Example 36]
IC50 [4, 7]: 45 nM

CO[C@H]1CC[C@H]([C@@H]2CCN(C(=O)[C@H]3CC[C@H]([C@H](N)CF)CC3)[C@@H]2C(=O)Nc2ccc3c(c2)cc2n3C(C)(C)OC2=O)CC1.Cl [Example 10, (3S)-1-({trans-4-[(1S)-1-amino-2-fluoroethyl]cyclohexyl}carbonyl)-N-(3,3-dimethyl-1-oxo-1H-[1,3]oxazolo[3,4-a]indol-7-yl)-3-(trans-4-methoxycyclohexyl)-L-prolinamide hydrochloride]
Metabolite formed (conversion by metabolism) [1]: converted to the compound of Example 24
Residual rate (%) Human plasma [2]: 6.7%
Residual rate (%) Human liver S9 [3]: 98%

CC1(C)OC(=O)c2cc3cc(NC(=O)[C@@H]4[C@@H](c5ccccc5)CCN4C(=O)[C@H]4CC[C@H]([C@H](N)CF)CC4)ccc3n21.Cl [Example 20, (3R)-1-({trans-4-[(1S)-1-amino-2-fluoroethyl]cyclohexyl}carbonyl)-N-(3,3-dimethyl-1-oxo-1H-[1,3]oxazolo[3,4-a]indol-7-yl)-3-phenyl-L-prolinamide]
Metabolite formed (conversion by metabolism) [1]: Reference Example 20-5
Residual rate (%) Human plasma [2]: 11%
Residual rate (%) Human liver S9 [3]: 93%

COc1ccc([C@H]2CCN(C(=O)[C@H]3CC[C@H]([C@H](N)CF)CC3)[C@@H]2C(=O)Nc2ccc3[nH]c(C(=O)O)cc3c2)cc1 [compound 43]
IC50 [4, 7]: 76 nM

CCc1c(C(=O)O)[nH]c2ccc(NC(=O)[C@@H]3[C@H](C4CCCCC4)CCN3C(=O)[C@H]3CC[C@H]([C@H](N)CF)CC3)cc12 [Reference Example 42]
IC50 [4, 7]: 91 nM

NC(CF)[C@H]1CC[C@H](C(=O)N2CC[C@@H](c3ccc(F)cc3)[C@H]2C(=O)Nc2ccc3[nH]c(C(=O)O)cc3c2)CC1 (some centres unmarked) [compound 38]
IC50 [4, 7]: 30 nM

NC[C@H]1CC[C@H](C(=O)N2CC[C@@H](C3CCCCC3)[C@H]2C(=O)Nc2ccc3[nH]c(C(=O)O)cc3c2)CC1 [Example 23]
IC50 [4, 7]: 3 nM

Cc1c(C(=O)O)[nH]c2ccc(NC(=O)[C@@H]3[C@H](C4CCCCC4)CCN3C(=O)[C@H]3CC[C@H]([C@H](N)CF)CC3)cc12 [compound 39]
IC50 [4, 7]: 145 nM

NC[C@H]1CC[C@H](C(=O)N2CC[C@@H](c3ccccc3)[C@H]2C(=O)Nc2ccc3[nH]c(C(=O)O)cc3c2)CC1 [compound 40]
IC50 [4, 7]: 9 nM
